Like-named read-outs stand apart in the source and are kept apart here.
Experiments:
[1] = system: T. cruzi Tulahuen strain (amastigotes and trypomastigotes); assay: Anti-T. cruzi activity assay (amastigotes and trypomastigotes) in infected L929 cells, beta-galactosidase reporter; type: cell-based, Trypanosoma cruzi; settings: 96 h exposure
Procedure: Anti-T. cruzi activity assay (amastigotes and trypomastigotes) - The in vitro anti-T. cruzi activity was evaluated on L929 cells (mouse fibroblasts) infected with Tulahuen strain of the parasite expressing the Escherichia coli β-galactosidase as reporter gene according to the method described previously.[49] Briefly, for the bioassay, 4,000 L929 cells were added to each well of a 96-well microtiter plate. After an overnight incubation, 40,000 trypomastigotes were added to the cells and incubated for 2 h. Then the medium containing extracellular parasites was replaced with 200 μL of fresh medium and the plate was incubated for an additional 48 h to establish the infection. For IC50 determination, the cells were exposed to each synthesized compound at serial decreasing dilutions and the plate was incubated for 96 h. After this period, 50 μL of 500 μM chlorophenol red beta-D-galactopyranoside (CPRG) in 0.5% Nonidet P40 was added to each well, and the plate was incubated for 16 to 20 h, after which the absorbance at 570 nm was measured. Controls with uninfected cells, untreated infected cells, infected cells treated with benznidazole at 3.8 μM (positive control) or DMSO 1% were used. The results were expressed as the percentage of T. cruzi growth inhibition in compound tested cells as compared to the infected cells and untreated cells. The IC50 values were calculated by linear interpolation. Quadruplicates were run in the same plate, and the experiments were repeated at least once.
(§1) IC50 over T. cruzi and L929 cells were determined by linear interpolation and the selectivity index (SI) was calculated by the ratio of CC50 L929 cells/ IC50 T. cruzi.

[2] = system: L929 cells (mouse fibroblasts); assay: In vitro cytotoxicity over L929 cell line (alamarBlue); type: cell-based; settings: ratio CC50 L929 / IC50 T. cruzi
Procedure: (§2) In vitro cytotoxic activity test of compounds and CC 50 determination over L929 cell line - For this bioassay, 4,000 L929 cells in 200 μL of RPMI-1640 medium (pH 7.2-7.4) (Gibco BRL) plus 10% foetal bovine serum and 2 mM glutamine were added to each well of a 96-well microtiter plate that was incubated for three days at 37 °C. The medium was then replaced, and the cells were exposed to compounds at increasing concentrations starting at IC50 value for T. cruzi. After 96 h of incubation with the compounds the alamarBlueTM was added and the absorbance at 570 and 600 nm was measured after 4-6 h. Controls with untreated and DMSO 1%-treated cells were run in parallel. The results were expressed as the percent difference in the reduction between treated and untreated cells. The compound concentration that inhibits 50% of the L929 cell viability (CC50) was determined. Quadruplicates were run in the same plate and the experiments were repeated at least once.
as §1

cruzain = settings: cited from earlier work
mammalian cathepsin S = system: mammalian cathepsin S; design: method as in PMID 28215783, PMID 32116030; settings: cited from earlier work
mammalian cathepsin B = system: mammalian cathepsin B; design: method as in PMID 28215783, PMID 32116030; settings: cited from earlier work
Recombinant cruzain = target: T1, Recombinant cruzain (Trypanosoma cruzi, UniProt P25779); assay: Cruzain inhibition, cleavage of fluorogenic substrate Z-FR-AMC; type: biochemical; settings: for inhibition at 23 µM: compound at 23 µM
T1 construct: gift: Allison Doak and Prof Brian Shoichet (University of California San Francisco)
T1 sequence (P25779 123-467): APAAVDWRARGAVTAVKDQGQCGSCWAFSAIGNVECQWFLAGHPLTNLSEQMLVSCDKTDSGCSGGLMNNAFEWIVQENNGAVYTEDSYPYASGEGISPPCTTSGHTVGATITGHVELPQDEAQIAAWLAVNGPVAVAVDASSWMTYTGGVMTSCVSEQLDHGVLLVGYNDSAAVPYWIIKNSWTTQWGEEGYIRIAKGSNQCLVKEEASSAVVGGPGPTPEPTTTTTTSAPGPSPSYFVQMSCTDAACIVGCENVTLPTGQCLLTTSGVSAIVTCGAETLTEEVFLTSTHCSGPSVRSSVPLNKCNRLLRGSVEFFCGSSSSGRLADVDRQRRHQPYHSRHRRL
Procedure: (§3) Assays against cruzain and TbrCATL - Recombinant cruzain and TbrCatL were generously provided by Allison Doak and Prof Brian Shoichet (University of California San Francisco, San Francisco, CA, USA) and Prof Conor Caffrey (University of California San Diego, San Diego, CA, USA), respectively. Enzyme activity was measured by monitoring the cleavage of the fluorogenic substrate Z-Phe-Arg-amidomethylcoumarin (Z-FR-AMC) at 25 °C. Fluorescence was monitored at 340/440 nm (excitation/emission) in a Biotec 87 Synergy 2 fluorimeter. Assays were conducted in 96-well flat bottom black plates in 0.1 M sodium acetate buffer, pH 5.5, 10 mM β-mercaptoethanol, 0.01% Triton X-100, […] enzyme and 2.5 µM substrate. DMSO and 1 µM E-64 were employed as negative and positive controls, respectively, in all assays. Assays were performed in triplicate, and enzyme activity was measured for 5 min. Reported values correspond to the mean and standard error of the mean (SEM).
(§4) Compounds were initially screened at a concentration of 100 µM against cruzain with and without a 10 min pre-incubation with the enzyme. […] IC50 values were determined from two independent experiments, each with seven compounds concentrations in triplicate. Dose-response curves were built by non-linear regression with Graph Pad Prism 6.
To evaluate the effects of Triton X-100 concentration on enzyme inhibition, assays were conducted using 0.1%, 0.01% and 0% Triton X-100. To access the impact of pre-incubation of bovine serum albumin (BSA) on enzyme inhibition, compounds were incubated with BSA (4 mg/mL, for a final assay concentration of 1 mg/mL) for 10’ followed by 10’ incubation with 2 nM enzyme. Finally, Z-FR-AMC was added to each well and the fluorescence was immediately read.

Recombinant TbrCatL = target: T2, Recombinant TbrCatL (Trypanosoma brucei rhodesiense, UniProt Q95PM0); assay: TbrCatL inhibition, cleavage of fluorogenic substrate Z-FR-AMC; type: biochemical, T. brucei
T2 construct: gift: Prof Conor Caffrey (University of California San Diego)
T2 sequence (Q95PM0 entry or part of it): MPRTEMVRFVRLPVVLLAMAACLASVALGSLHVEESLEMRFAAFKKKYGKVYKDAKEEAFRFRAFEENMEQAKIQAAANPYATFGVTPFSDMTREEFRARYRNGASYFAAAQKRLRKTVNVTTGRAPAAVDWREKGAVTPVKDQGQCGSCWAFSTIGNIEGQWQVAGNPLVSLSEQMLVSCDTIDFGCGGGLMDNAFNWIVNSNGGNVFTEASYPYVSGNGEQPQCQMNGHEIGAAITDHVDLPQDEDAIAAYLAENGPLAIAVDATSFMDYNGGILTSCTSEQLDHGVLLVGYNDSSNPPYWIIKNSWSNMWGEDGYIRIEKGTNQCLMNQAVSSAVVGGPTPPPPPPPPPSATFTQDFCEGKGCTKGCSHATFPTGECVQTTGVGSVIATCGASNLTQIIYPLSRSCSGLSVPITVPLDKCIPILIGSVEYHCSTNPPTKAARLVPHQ
Procedure: as §3, §4

[3] = In vitro cytotoxicity over L929 cell line (alamarBlue); type: cell-based, mouse; settings: mouse, L929 cells (mouse fibroblasts); uninfected L929 cells; 96 h incubation
Procedure: as §2, §1

[4] = 100 µM compound, 10 min pre-incubation with enzyme, 0.01% Triton X-100, read-out: % Inhibition at 100 µM (Mean ± SEM) Cruzain 10' pre-incubation
[5] = 100 µM compound, no pre-incubation, 0.01% Triton X-100, read-out: % Inhibition at 100 µM (Mean ± SEM) Cruzain No pre-incubation
[6] = 100 µM compound, 10 min pre-incubation with enzyme, read-out: % Inhibition at 100 µM (Mean ± SEM) TbrCATL 10' pre-incubation

Compound: O=C(Cn1ccnc1[N+](=O)[O-])NCc1ccccc1 [Benznidazole, reference compound]
- IC50 ([1]; Trypanosoma cruzi): 3.8 ± 0.8 µM
- SI (selectivity index), CC50 L929 cells / IC50 T. cruzi [2]: 626

Compound: Clc1ccc2[nH]c3c(NCCCN4CCOCC4)ncnc3c2c1 [Compound 1]
- IC50 (cruzain; hit from HTS): 2.5 µM
- Ki (cruzain; non-covalent competitive inhibitor from HTS): 2 µM

Compound: Clc1ccc2c(NCCCN3CCOCC3)ccnc2c1 [Compound 2]
- Inhibition of mammalian cathepsin S (mammalian cathepsin S): did not inhibit
- Inhibition of mammalian cathepsin B (mammalian cathepsin B): did not inhibit

Compound: CC(C)(CN)CNc1ccnc2cc(Cl)ccc12 [Compound 3]
- Inhibition of mammalian cathepsin S (mammalian cathepsin S): did not inhibit
- Inhibition of mammalian cathepsin B (mammalian cathepsin B): did not inhibit

Compound: Clc1ccc2c(NC3CCCCC3)ccnc2c1 [Compound 4, 7-chloro-N-cyclohexylquinolin-4-amine]
- inhibition at 100 µM (Recombinant cruzain; [4]): 18 ± 2%
- inhibition at 100 µM (Recombinant cruzain; [5]): 19 ± 1%
- inhibition at 100 µM (Recombinant TbrCatL; [6]): 38 ± 4%
- IC50 ([1]; Trypanosoma cruzi): 2.57 ± 0.11 µM
- CC50 at 96 h [3]: < 2.3 µM

Compound: Clc1ccc2c(NCc3ccco3)ccnc2c1 [Compound 5, 7-chloro-N-(furan-2-ylmethyl)quinolin-4-amine]
- inhibition at 100 µM (Recombinant cruzain; [4]): 99 ± 1%
- inhibition at 100 µM (Recombinant cruzain; [5]): 93 ± 1%
- inhibition at 23 µM (Recombinant cruzain; 0.01% Triton X-100, read-out: % Inhibition of cruzain (Mean ± SEM) Triton 0.01%): 28.4 ± 2%
- inhibition at 23 µM (Recombinant cruzain; 0.1% Triton X-100, read-out: % Inhibition of cruzain (Mean ± SEM) Triton 0.1%): 28.4 ± 3%
- inhibition at 23 µM (Recombinant cruzain; no Triton X-100, read-out: % Inhibition of cruzain (Mean ± SEM) Triton 0%): 100 ± 1%
- inhibition at 23 µM (Recombinant cruzain; pre-incubation with BSA (final 1 mg/mL), no Triton X-100, read-out: % Inhibition of cruzain (Mean ± SEM) BSA + Triton 0%): 32.2 ± 1%
- IC50 (Recombinant cruzain; two independent experiments, seven concentrations in triplicate, read-out: IC50 against cruzain): 23 µM
- inhibition at 100 µM (Recombinant TbrCatL; [6]): 94 ± 1%
- inhibition at 100 µM (Recombinant TbrCatL; 100 µM compound, no pre-incubation, read-out: % Inhibition at 100 µM (Mean ± SEM) TbrCATL No pre-incubation): 87 ± 3%
- IC50 (Recombinant TbrCatL; two independent experiments, seven concentrations in triplicate, read-out: IC50 against TbrCatL): 29 µM
- IC50 ([1]; Trypanosoma cruzi): 143 µM

Compound: N-butyl-7-chloroquinolin-4-amine [Compound 6]
- % Inhibition at 100 µM (Mean ± SEM) Cruzain 10' pre-incubation (Recombinant cruzain; 100 µM compound, 10 min pre-incubation with enzyme, 0.01% Triton X-100): 35 ± 1%
- % Inhibition at 100 µM (Mean ± SEM) Cruzain No pre-incubation (Recombinant cruzain; 100 µM compound, no pre-incubation, 0.01% Triton X-100): 35 ± 1%
- % Inhibition at 100 µM (Mean ± SEM) TbrCATL 10' pre-incubation (Recombinant TbrCatL; 100 µM compound, 10 min pre-incubation with enzyme): 42 ± 4%
- IC50 [1]: 150 µM

— publication PMC11809514, “Investigation of the activity of 4-aminoquinolines as cysteine protease inhibitors with application in the treatment of Chagas disease” (Memórias do Instituto Oswaldo Cruz, 2025)
